Key:
[1] = Solubility of amines and amine mixtures in acrylate resins; assay type: physicochemical; details: for Solubility (% w/w at ~15-20° C.): stays in solution at least 7 days, above 10% w/w not tested; for Dissolution of the solid material: at 1% w/w in the acrylate resins
Procedure: This example illustrates the improved solubility of the co-initiator mixtures compared to single component amine co-initiator compositions, illustrating the benefit of providing a composition comprising both the compound of Formula I and the ancillary amine. For comparison, the solubility of amine mixtures as provided by this invention, of which mixtures AM1-AM6 are representative examples, were tested alongside single component formulations comprising only the amines AC1-AC5.
Mixtures of amine synergists were prepared using one of the methods described above.
The solid amines AC1-AC5 or mixtures of amines AM1-AM6 were added portion-wise in 1% w/w portions to stirred 5.0 g samples of the following acrylate resins and the samples were stirred at 15-20° C. until all solid material was completely dissolved: HDDA (1,6-hexanediol diacrylate), TMPTA (trimethylolpropane triacrylate), TPGDA (tripropyleneglycol diacrylate). At the concentrations given below (Table 2a-2k) all solids remained in solution for at least 7 days at 15-20° C. unless otherwise stated. In cases where the solids began to crystallise out of solution within this time the mixtures were warmed to approx. 40° C. to re-dissolve the solids and the concentrations were adjusted to the given values by the addition of extra resin, whereupon the solids remained dissolved at the adjusted concentration for at least 7 days at 15-20° C. Solubility above 10% w/w was not tested in any case. The weight % is based on the total weight of the mixture.

[2] = UV curing experiments: passes under Hg lamp to tack-free / thumb-twist cure; details: approx. 16 m/min belt speed, 0.20 g amine in 4.0 g resin with 1% 2-ITX and 4% BP
Procedure: The following example illustrates the high curing speed of co-initiators which contain the compound of Formula I and the ancillary amine. For comparison, the commercially available amine co-initiators SpeedCure EDB (Lambson Limited) and diffusion-hindered polymeric amine SpeedCure 7040 (Lambson Limited) were also tested. Additionally, the pure amines AC1-AC5 were tested alongside the mixtures provided by this invention, of which the mixtures AM1-AM6 are representative examples.
The amine co-initiators or co-initiator mixtures (0.20 g) were added to a resin mixture (4.0 g) containing 1% w/w SpeedCure 2-ITX (Lambson Limited) and 4% w/w SpeedCure BP (Lambson Limited) in 70:30 ethoxylated bisphenol A dimethacrylate (EO/phenol 10):trimethylolpropane triacrylate with stirring at 15-20° C. until all solid material had dissolved.
Formulations were cured at 6 and 24 μm film thicknesses under Hg lamp using a Dymax curing instrument with approx. 16 m/min belt speed. The number of passes under the lamp required to give a ‘tack-free’ (TF) coating (as determined when the surface of the coating no longer feels sticky when lightly touched) or full cure as determined by the ‘thumb-twist’ test (TT) (i.e. until no visible mark is made when a thumb is pressed down firmly onto the coating with a twisting motion) are given in Table 3.

[3] = in HDDA (1,6-hexanediol diacrylate)
[4] = in TMPTA (trimethylolpropane triacrylate)
[5] = in TPGDA (tripropyleneglycol diacrylate)

| Solubility (% w/w at ~15-20° C.) [1, 3] | Solubility (% w/w at ~15-20° C.) [1, 4] | Solubility (% w/w at ~15-20° C.) [1, 5] | Time until solid crystallised out of solution ([1]; initially dissolved at 2% w/w, all three resins) | Dissolution of the solid material [1] | Compound | No. of Passes Required, TF (tack-free) ([2]; 6 μm film) | No. of Passes Required, TT (thumb-twist, full cure) ([2]; 6 μm film) | No. of Passes Required, TF (tack-free) ([2]; 24 μm film) | No. of Passes Required, TT (thumb-twist, full cure) ([2]; 24 μm film) |
| --- | --- | --- | --- | --- | --- | --- | --- | --- | --- |
| 5 % w/w | 4 % w/w | 3 % w/w |  |  | CCC(COCC(CC)(COC(=O)c1ccc(N(C)C)cc1)COC(=O)c1ccc(N(C)C)cc1)(COC(=O)c1ccc(N(C)C)cc1)COC(=O)c1ccc(N(C)C)cc1 [AC1] | 1 passes | 5 passes | 1 passes | 2 passes |
| 10 % w/w | 10 % w/w | 10 % w/w |  |  | CCC(CO)(COCC(CC)(COC(=O)c1ccc(N(C)C)cc1)COC(=O)c1ccc(N(C)C)cc1)COC(=O)c1ccc(N(C)C)cc1 (stereo not drawn) [AC2] | 1 passes | 6 passes | 1 passes | 2 passes |
| <2 % w/w | <2 % w/w | <2 % w/w | ≤ 24 h |  | CCC(COC(=O)c1ccc(N(C)C)cc1)(COC(=O)c1ccc(N(C)C)cc1)COC(=O)c1ccc(N(C)C)cc1 [AC3] |  |  |  |  |
| <1 % w/w | <1 % w/w | <1 % w/w |  | would not dissolve | CN(C)c1ccc(C(=O)OCC(COC(=O)c2ccc(N(C)C)cc2)(COC(=O)c2ccc(N(C)C)cc2)COC(=O)c2ccc(N(C)C)cc2)cc1 [AC4] |  |  |  |  |
| <1 % w/w | <1 % w/w | <1 % w/w |  | would not dissolve | CN(C)c1ccc(C(=O)OCC(COC(=O)c2ccc(N(C)C)cc2)OC(=O)c2ccc(N(C)C)cc2)cc1 [AC5] |  |  |  |  |
|  |  |  |  |  | CCOC(=O)c1ccc(N(C)C)cc1 [SpeedCure EDB, ethyl 4-(dimethylamino)benzoate, reference compound] | 1 passes | 6 passes | 1 passes | 2 passes |

Reference: patent US12146010B2, “Amine co-initiator mixture” (Arkema UK Limited, priority 2019, dated 2024)
